Assay results as given in patent US20080319000A1, “Use of 3,1IB-Cis-Dihydrotetrabenazine for the Treatment of Symptoms of Huntingtons Disease” (CAMBRIDGE LABORATORIES (IRELAND) LIMITED, priority 2005, published 2008).

Columns and labels:
[1] = system: B6CBA-Tg(HDexon1)62Gpb/1J transgenic (R6/2) mice; experiment: Simplified Irwin test in transgenic mice model of Huntington's disease; assay type: in vivo
Protocol: B6CBA-Tg(HDexon1)62Gpb/1J transgenic (R6/2) mice are transgenic for the 5-end of the human HD gene carrying (CAG) 115-(CAG) 150 repeat expansions. […] These symptoms appear between 6 and 8 weeks of age. […] Female B6CBa-Tg(HDexon1)62Gpb/1J transgenic mice (Jackson Laboratory, USA) were housed 5 per cage in an enriched environment under a light-dark cycle of 12 h-12 h (light on at 7.00 am, off at 7.00 pm) at a room temperature of 21±2° C., with 50±15% humidity. The mice had access to commercial mouse chow (mouse/rate breeding, ref. 9341 Provimi Kliba, Switzerland) and tap water. […] Two hours before the observations, animals were placed in individual cages. Measurements were first carried out in the individual cages. The animal's convulsions, tremors-twitches, stereotypies and vocalizations were recorded. The animal was then placed in a 58.5×68.5 cm open field with a 6 cm rim and observed for approximately 3 minutes. Gait characteristics were ranked. The presence of convulsions or tremors-twitches and stereotypies was again noted. At the end of the 3 minutes, the number of faecal boluses and pools of urine was recorded. The mice were then returned to their individual cages after testing. Group 1: hemizygote Transgenic B6CBA-Tg(HDexon 1)62Gpb/1J mice treated with vehicle i.p. once a day for 4 days (from day 0 to day 3) Group 2: hemizygote Transgenic B6CBA-Tg(HDexon 1)62Gpb/1J mice treated with 5 mg/kg i.p. of test item once a day for 4 days (from day 0 to day 3) […] • Test item administration • Simplified Irwin test, 40 minutes after administration • Rotarod test, immediately after the simplified Irwin test • Test item administration • Simplified Irwin test, 40 min after administration • Rotarod test, immediately after simplified #Irwin test • Test item administration • Simplified Irwin test, 40 min after administration • Locomotor activity test, immediately after the simplified Irwin test Simplified Irwin scores were analysed using non-parametric Mann-Whitney's U test. Locomotor activity data were analysed using Dunnett's t-test. Rotarod scores were analysed using the non-parametric Mann-Whitney's U-test. Statistical analyses were performed using the software Statview SE^+graphics software, Brain Power.

adrenergic receptors = experiment: Adrenergic receptor inhibition; assay type: binding
[2] = home cage, Day 0 after administration, 5 mg/kg i.p. once a day Day 0-3
[3] = home cage, Day 0 before administration, 5 mg/kg i.p. once a day Day 0-3
[4] = home cage, Day 1, 5 mg/kg i.p. once a day Day 0-3
[5] = home cage, Day 2, 5 mg/kg i.p. once a day Day 0-3
[6] = home cage, Day 3, 5 mg/kg i.p. once a day Day 0-3
[7] = open field, Day 0 after administration, 5 mg/kg i.p. once a day Day 0-3
[8] = open field, Day 0 before administration, 5 mg/kg i.p. once a day Day 0-3
[9] = open field, Day 1, 5 mg/kg i.p. once a day Day 0-3
[10] = open field, Day 2, 5 mg/kg i.p. once a day Day 0-3
[11] = open field, Day 3, 5 mg/kg i.p. once a day Day 0-3
[12] = open field, Day 17, 5 mg/kg i.p. once a day Day 0-3
[13] = open field, Day 21, 5 mg/kg i.p. once a day Day 0-3
[14] = open field, Day 24, 5 mg/kg i.p. once a day Day 0-3
[15] = open field, Day 27, 5 mg/kg i.p. once a day Day 0-3
[16] = open field, Day 31, 5 mg/kg i.p. once a day Day 0-3
[17] = period of 17 to 24 days after administration

Structure (SMILES): COc1cc2c(cc1OC)[C@H]1C[C@H](O)[C@@H](CC(C)C)CN1CC2 (single isomer, unassigned) [Isomer B]
- incidences of involuntary movements such as involuntary chorea, tremors and twitches ([1]; after 21 days versus prior to administration): no worse after 21 days than they had been prior to administration
- Convulsions [1, 2]: 0.13
- Grooming [1, 2]: 7.38 s
- Stereotypies [1, 2]: — (Sign never observed (equivalent to 0.00 ± 0.00))
- Tremors-Twitches [1, 2]: 1.13
- Vocalization [1, 2]: — (Sign never observed (equivalent to 0.00 ± 0.00))
- Convulsions [1, 3]: 0.22
- Grooming [1, 3]: 10.00 s
- Stereotypies [1, 3]: — (Sign never observed (equivalent to 0.00 ± 0.00))
- Tremors-Twitches [1, 3]: 1.44
- Vocalization [1, 3]: — (Sign never observed (equivalent to 0.00 ± 0.00))
- Convulsions [1, 4]: — (Sign never observed (equivalent to 0.00 ± 0.00))
- Grooming (sec) [1, 4]: — (Sign never observed (equivalent to 0.00 ± 0.00))
- Stereotypies [1, 4]: — (Sign never observed (equivalent to 0.00 ± 0.00))
- Tremors-Twitches [1, 4]: 1.00
- Vocalization [1, 4]: — (Sign never observed (equivalent to 0.00 ± 0.00))
- Convulsions [1, 5]: — (Sign never observed (equivalent to 0.00 ± 0.00))
- Grooming [1, 5]: 7.78 s
- Stereotypies [1, 5]: — (Sign never observed (equivalent to 0.00 ± 0.00))
- Tremors-Twitches [1, 5]: 0.78
- Vocalization [1, 5]: — (Sign never observed (equivalent to 0.00 ± 0.00))
- Convulsions [1, 6]: 0.11
- Grooming [1, 6]: 4.22 s
- Stereotypies [1, 6]: — (Sign never observed (equivalent to 0.00 ± 0.00))
- Tremors-Twitches [1, 6]: 1.00
- Vocalization [1, 6]: — (Sign never observed (equivalent to 0.00 ± 0.00))
- Convulsions [1, 7]: 0.67
- Defecation (N° of boluses) [1, 7]: 1.44 N° of boluses
- Gait [1, 7]: 0.33
- Grooming [1, 7]: 3.11 s
- Stereotypies [1, 7]: 0.11
- Tremors-Twitches [1, 7]: 1.89
- Urination (N° of pools) [1, 7]: 0.44 N° of pools
- Vocalisation [1, 7]: 0.22
- Convulsions [1, 8]: — (Sign never observed (equivalent to 0.00 ± 0.00))
- Defecation (N° of boluses) [1, 8]: 2.56 N° of boluses
- Gait [1, 8]: 1.11
- Grooming [1, 8]: 19.44 s
- Stereotypies [1, 8]: — (Sign never observed (equivalent to 0.00 ± 0.00))
- Tremors-Twitches [1, 8]: 2.11
- Urination (N° of pools) [1, 8]: 0.67 N° of pools
- Vocalisation [1, 8]: 0.44
- Convulsions [1, 9]: 0.11
- Defecation (N° of boluses) [1, 9]: 0.89 N° of boluses
- Gait [1, 9]: 1.00
- Grooming [1, 9]: 7.78 s
- Stereotypies [1, 9]: — (Sign never observed (equivalent to 0.00 ± 0.00))
- Tremors-Twitches [1, 9]: 2.33
- Urination (N° of pools) [1, 9]: 0.11 N° of pools
- Vocalisation [1, 9]: 0.67
- Convulsions [1, 10]: — (Sign never observed (equivalent to 0.00 ± 0.00))
- Defecation (N° of boluses) [1, 10]: 1.22 N° of boluses
- Gait [1, 10]: 0.67
- Grooming [1, 10]: 20.56 s
- Stereotypies [1, 10]: — (Sign never observed (equivalent to 0.00 ± 0.00))
- Tremors-Twitches [1, 10]: 2.00
- Urination (N° of pools) [1, 10]: 0.33 N° of pools
- Vocalisation [1, 10]: 0.89
- Convulsions [1, 11]: — (Sign never observed (equivalent to 0.00 ± 0.00))
- Defecation (N° of boluses) [1, 11]: 1.33 N° of boluses
- Gait [1, 11]: 2.33
- Grooming [1, 11]: 12.67 s
- Stereotypies [1, 11]: — (Sign never observed (equivalent to 0.00 ± 0.00))
- Tremors-Twitches [1, 11]: 1.78
- Urination (N° of pools) [1, 11]: 0.11 N° of pools
- Vocalisation [1, 11]: 0.89
- Convulsions [1, 12]: 0.67
- Defecation (N° of boluses) [1, 12]: 2.67 N° of boluses
- Gait [1, 12]: 1.56
- Grooming [1, 12]: 20.33 s
- Stereotypies [1, 12]: — (Sign never observed (equivalent to 0.00 ± 0.00))
- Tremors-Twitches [1, 12]: 1.44
- Urination (N° of pools) [1, 12]: 0.22 N° of pools
- Vocalisation [1, 12]: 0.22
- Convulsions [1, 13]: — (Sign never observed (equivalent to 0.00 ± 0.00))
- Defecation (N° of boluses) [1, 13]: 2.44 N° of boluses
- Gait [1, 13]: 1.67
- Grooming [1, 13]: 17.67 s
- Stereotypies [1, 13]: — (Sign never observed (equivalent to 0.00 ± 0.00))
- Tremors-Twitches [1, 13]: 1.67
- Urination (N° of pools) [1, 13]: 0.11 N° of pools
- Vocalisation [1, 13]: 0.44
- Convulsions [1, 14]: — (Sign never observed (equivalent to 0.00 ± 0.00))
- Defecation (N° of boluses) [1, 14]: 1.33 N° of boluses
- Gait [1, 14]: 2.17
- Grooming [1, 14]: 18.22 s
- Stereotypies [1, 14]: — (Sign never observed (equivalent to 0.00 ± 0.00))
- Tremors-Twitches [1, 14]: 2.44
- Urination (N° of pools) [1, 14]: 0.33 N° of pools
- Vocalisation [1, 14]: 0.44
- Convulsions [1, 15]: — (Sign never observed (equivalent to 0.00 ± 0.00))
- Defecation (N° of boluses) [1, 15]: 2.33 N° of boluses
- Gait [1, 15]: 2.56
- Grooming [1, 15]: 25.33 s
- Stereotypies [1, 15]: — (Sign never observed (equivalent to 0.00 ± 0.00))
- Tremors-Twitches [1, 15]: 2.11
- Urination (N° of pools) [1, 15]: 0.44 N° of pools
- Vocalisation [1, 15]: 0.00
- Convulsions [1, 16]: — (Sign never observed (equivalent to 0.00 ± 0.00))
- Defecation (N° of boluses) [1, 16]: 1.44 N° of boluses
- Gait [1, 16]: 2.33
- Grooming [1, 16]: 19.11 s
- Stereotypies [1, 16]: — (Sign never observed (equivalent to 0.00 ± 0.00))
- Tremors-Twitches [1, 16]: 2.67
- Urination (N° of pools) [1, 16]: 0.11 N° of pools
- Vocalisation [1, 16]: 0.22
- deterioration (progression of symptoms) versus control mice [1, 17]: significantly less deterioration than the control mice
- deterioration in gait [1, 17]: substantially arrested or slowed
- progression of symptoms of Huntington's disease (involuntary movements, deterioration in gait) ([1]; transgenic mouse model of Huntington's disease): shown to arrest the progression of a number of symptoms of Huntington's disease
- inhibition of the adrenergic receptors (adrenergic receptors): either weakly active or inactive
